Values of other authors in patent US20160220684A1, “COMPOSITION AND METHOD FOR RELIEVING PAIN AND INFLAMMATION, TREATMENT OF ERECTILE DYSFUNCTION, AND TREATMENT OF ACNE” (priority 2014, published 2016).

Tested on: intractable pain
Conditions: patients with metastatic cancer refractory to opioids; article published May 28, 2015

In the case of O=C(c1ccccc1)c1ccc2n1CCC2C(=O)O (racemic) [keterolac, (±)-5-benzoyl-2,3-dihydro-1H-pyrrolizine-1-carboxylic acid, compounded with 2-amino-2-(hydroxymethyl)-1,3-propanediol], the “analgesic effectiveness in intractable pain” value is listed as “only effective non-opiod analgesic”.
